Several values for one entry are separate records, joined by “and”; a condition that tells them apart may be missing. Equal entries are not always repeated. Where two headings read alike, the source gives them in different places. Marks after values point to notes of the source that are not given here.
Experiments:
[1] = assay type: in vivo, Mus musculus
Method: In this study, 36 healthy male Mus musculus (12–14 weeks old, 25–30 g) were used as subjects and obtained from GRU-Experimental Animals Laboratory. Albino mice were maintained in stainless steel cages, at 22 ± 3 °C and 55 ± 5% relative humidity, 12 h light/12 h dark cycle. All experiments were performed in accordance with the guidelines of the Animal Experiments Local Ethics Committee of Giresun University and approved by the Animal Ethics Committee of Giresun University (protocol number: 2017/02). This study was carried out in compliance with the ARRIVE guidelines. Six groups were formed with six mice in each group.
After the mice were stunned under halothane anesthesia, their body weights were measured before the administration period and at the end of the 28-day administration period. In addition, at the end of the 28th day, the liver and kidney organs of the sacrificed mice were isolated and their weights were measured.

[2] = assay type: in vivo, Mus musculus; remark: listed apart in the source
Method: In order to interpret the changes in body weight and organ weights, the weekly feed consumption of the mice was measured. Albino mice can consume approximately 3–4 g of feed in a day[15]. In line with this information, 30 g of feed per day were put into the cages, with 5 g for each mouse in each group. Feed consumption was calculated by measuring the amount of feed remaining in the container at the end of the 7th day of each week during the 28-day application period.

[3] = Serum parameters (AST, ALT, BUN, creatinine); assay type: in vivo, Mus musculus
Method: Whole blood samples from mice stunned under halothane anesthesia were collected in vacuum tubes and centrifuged at 1200g at + 4 °C for 10 min. In serum obtained from blood, aspartate aminotransferase (AST, Teco Diagnostics, CAT. NO: A559–150), alanine aminotransferase (ALT, Teco Diagnostics, CAT. NO: A524–150), blood urea nitrogen (BUN, Teco Diagnostics, CAT. NO: B549–150) and creatinine (Teco Diagnostics) levels were measured on a Medispec 99M autoanalyzer using a commercial kit[16].

[4] = test system: liver and kidney tissues; assay: Antioxidant/oxidant balance: MDA and GSH levels in kidney and liver; assay type: in vivo, Mus musculus
Method: To determine the effects of AFM1 and t-rsv on antioxidant/oxidant balance, malondialdehyde and glutathione levels were measured in the kidney and liver. For this purpose, liver and kidney organs were isolated from each mouse sacrificed under halothane anesthesia and washed with a sterile solution. Liver and kidney organs were homogenized with cold 0.15 M KCl solution. Homogenates were centrifuged at 5000g and 4 °C for 1 h and MDA and GSH analyzes were performed in the supernatant.

[5] = test system: bone marrow cells; assay type: in vivo, Mus musculus
Method: (§1) The genotoxic effects of AFM1 and the genotoxicity reducing effects of t-rsv were determined by MN and CAs analyses. MN test was performed in erythrocyte, buccal mucosa epithelium and leukocyte cells. CAs analyzes were investigated in bone marrow cells. The cytotoxic effects of AFM1 and the cytotoxicity reducing effects of t-rsv were determined by MI in bone marrow cells.
CAs and MI analysis were determined in the bone marrow. For this aim, mice treated with 0.025% colchicine were sacrificed 2 h later under halothane anesthesia. Bone marrow obtained from the femurs of mice was aspirated, washed with the physiological solution and 0.075 M KCl was transferred. After fixation with Carnoy's solution, samples stained with Giemsa (5%) were examined under a microscope. […] In prepared slides, MI was determined as the percentage of dividing cells among 1000 nucleated cells for each group. Recovery effects (RE) of t-rsv against AFM1 induced genotoxicity were calculated by using Eq. (1). In determining RE, data belonging to Group VI, where t-rsv provided the highest healing effect, Group IV, in which AFM1 was treated alone, and the control group were used.1 RE%=D1-D2/D3-D2×100 D1: data of AFM1 + t-rsv treated group, D2: Data of AFM1 treated group, D3: data of control.

[6] = test system: bone marrow cells; assay type: in vivo, Mus musculus; remark: listed apart in the source
Method: as §1
CAs and MI analysis were determined in the bone marrow. For this aim, mice treated with 0.025% colchicine were sacrificed 2 h later under halothane anesthesia. Bone marrow obtained from the femurs of mice was aspirated, washed with the physiological solution and 0.075 M KCl was transferred. After fixation with Carnoy's solution, samples stained with Giemsa (5%) were examined under a microscope. MI rates and CAs frequencies were determined in the prepared slides and 1.000 cells were analyzed for each group. In prepared slides, MI was determined as the percentage of dividing cells among 1000 nucleated cells for each group. Recovery effects (RE) of t-rsv against AFM1 induced genotoxicity were calculated by using Eq. (1). In determining RE, data belonging to Group VI, where t-rsv provided the highest healing effect, Group IV, in which AFM1 was treated alone, and the control group were used.1 RE%=D1-D2/D3-D2×100 D1: data of AFM1 + t-rsv treated group, D2: Data of AFM1 treated group, D3: data of control.

[7] = test system: leukocyte cell nuclei; assay type: in vivo, swiss albino mice
Method: The protocol of Tice et al.[19] was performed for alkaline single cell gel electrophoresis with slight modifications. Slides were dipped in 1% normal melting point agarose for coating and allowed to dry at 37 °C. 10 µL of peripheral blood were added to 120 µL of 0.5% low-melting-point agarose at 37 °C, layered onto a coated slide, covered with a coverslip and left at 4 °C for 5 min. to solidify the agarose. The coverslip was removed and the slides were immersed into a lysis solution (2.5 M NaCl, 100 mm Na2EDTA, 10 mM Tris–HCl buffer, pH 10, 1% Triton X-100) for approximately 1 h. After lysis, the slides were transferred to a horizontal gel electrophoresis tank with a fresh and cooled alkaline buffer. After a 20 min. DNA unwinding period, electrophoresed at 0.86 V/cm (20 V, 300 mA) for 20 min. […] To prevent DNA damage, all steps were performed in low light and analyzed by fluorescence microscopy. Comets were analyzed with Comet Assay software version 1.2.3b[20] with the parameters of tail DNA length. A total of 600 cells were analyzed for each group, 100 in each animal for DNA damage. The extent of DNA damage was scored from 0 to 4 depending upon the level of DNA damage. […] The total DNA damage per group, expressed as arbitrary units, was calculated using Eq. (2).2 Arbitraryunit=∑i=04Nixi (i: degree of damage (0, 1, 2, 3, 4), Ni: the number of cells in i degree).

[8] = rabbit, in vivo; cited from earlier work
[9] = in vivo; cited from earlier work
[10] = test system: buccal mucosa epithelial cells; assay: MN test in buccal mucosa epithelial cells; assay type: in vivo, Mus musculus; details: 20 mg/kg t-rsv against 16 mg/kg AFM1
Method: as §1
For the MN test in the buccal mucosa epithelial cells, the mouths of the mice stunned with halothane anesthesia were rinsed with distilled water, and epithelial cells were taken from the left and right buccal mucosa and spread on the slide. Preparations fixed in methanol: acetic acid solution were stained with Fast Green and Feulgen then examined with a research microscope. For the MN test in erythrocytes, blood samples (5 µL) from the tail veins of mice stunned with halothane anesthesia were mixed with EDTA (3%) solution and spread on sterile slides. The preparations were fixed in ethanol (70%) for 2 min. were left to dry at 21 °C for 24 h. Slides were stained with Giemsa (5%) for 15 min. and analyzed under a microscope. For the leukocyte MN test, blood samples were obtained from each mouse and centrifuged at 5000 rpm for 10 min. 5 mL of 0.075 M KCl solution was transferred to the pellet. […]

[11] = test system: albino mice; details: 10 mg/kg and 20 mg/kg doses
[12] = Group II: 10 mg/kg b.w. t-rsv, 28 days
[13] = Group III: 20 mg/kg b.w. t-rsv, 28 days
[14] = Group II: 10 mg/kg b.w. t-rsv, 600 cells analyzed
[15] = Group III: 20 mg/kg b.w. t-rsv, 600 cells analyzed

COc1cc2c(c3oc(=O)c4c(c13)CCC4=O)C1(O)C=COC1O2 (centres unmarked) [AFM1, Aflatoxin M1]
decrease in kidney weight compared to the control group ([1]; mouse, in vivo): 51.3%
decrease in liver weight compared to the control group ([1]; mouse, in vivo): 43.1%
Organ weight, kidney ([1]; mouse, in vivo, iv, 16 mg/kg): 0.74 ± 0.15^d
Organ weight, liver ([1]; mouse, in vivo, iv, 16 mg/kg): 1.50 ± 0.24^d
Feed consumption, 7th day ([2]; mouse, in vivo, iv, 16 mg/kg): 148.6
Feed consumption, 14th day ([2]; mouse, in vivo, iv, 16 mg/kg): 147.1
Feed consumption, 21st day ([2]; mouse, in vivo, iv, 16 mg/kg): 131.1
Feed consumption, 28th day ([2]; mouse, in vivo, iv, 16 mg/kg): 119.8
increase in ALT level compared to the control group ([3]; mouse, in vivo, iv, 16 mg/kg): 35.8%
increase in AST level compared to the control group ([3]; mouse, in vivo, iv, 16 mg/kg): 33.6%
increase in BUN level compared to the control group ([3]; mouse, in vivo, iv, 16 mg/kg): 43.6%
increase in creatinine level compared to the control group ([3]; mouse, in vivo, iv, 16 mg/kg): 58.4%
decrease of kidney GSH level compared to the control group ([4]; mouse, in vivo): 39.3%
decrease of liver GSH level compared to the control group ([4]; mouse, in vivo): 63.7%
increase of kidney MDA level compared to the control group ([4]; mouse, in vivo): 1.41 times
increase of liver MDA level compared to the control group ([4]; mouse, in vivo): 1.22 times
CAs frequency, Acentric ([5]; mouse, in vivo, iv, 16 mg/kg): 12.70 ± 0.94^a
CAs frequency, Break ([5]; mouse, in vivo, iv, 16 mg/kg): 60.20 ± 4.38^a
CAs frequency, Dicentric ([5]; mouse, in vivo, iv, 16 mg/kg): 8.20 ± 0.84^a
CAs frequency, Fragment ([5]; mouse, in vivo, iv, 16 mg/kg): 31.80 ± 3.12^a
CAs frequency, Gap ([5]; mouse, in vivo, iv, 16 mg/kg): 20.80 ± 2.65^a
CAs frequency, Ring ([5]; mouse, in vivo, iv, 16 mg/kg): 48.40 ± 4.15^a
decrease in MI rate compared to the control group ([6]; mouse, in vivo): 32.5%
average DNA damage score ([7]; mouse, in vivo, iv, 16 mg/kg): 255.67 ± 16.57
decrease in body weight compared to the control group (mouse, in vivo): 17.5%
FBW: Final body weight (mouse, in vivo, iv, 16 mg/kg): 41.38 ± 1.98 g
TWG: Total weight gain (mouse, in vivo, iv, 16 mg/kg): 3.5 g and 3.50^d g

Aflatoxin G2 [AFG2]
body weight loss compared to the control group [8]: approximately 539 g

Aflatoxin B1 [AFB1]
reduction of weight gain compared to control [9]: 33.94%
body weight loss compared to the control group [8]: approximately 539 g

Oc1ccc(/C=C/c2cc(O)cc(O)c2)cc1 [t-rsv, trans-resveratrol]
Organ weight, kidney [1, 12]: 1.55 ± 0.30^a
Organ weight, liver [1, 12]: 2.62 ± 0.34^a
Organ weight, kidney [1, 13]: 1.53 ± 0.26^a
Organ weight, liver [1, 13]: 2.65 ± 0.42^a
Feed consumption, 7th day ([2]; Group II: 10 mg/kg b.w. t-rsv): 151.9
Feed consumption, 14th day ([2]; Group II: 10 mg/kg b.w. t-rsv): 152.7
Feed consumption, 21st day ([2]; Group II: 10 mg/kg b.w. t-rsv): 155.7
Feed consumption, 28th day ([2]; Group II: 10 mg/kg b.w. t-rsv): 153.2
Feed consumption, 7th day ([2]; Group III: 20 mg/kg b.w. t-rsv): 157.6
Feed consumption, 14th day ([2]; Group III: 20 mg/kg b.w. t-rsv): 153.2
Feed consumption, 21st day ([2]; Group III: 20 mg/kg b.w. t-rsv): 155.6
Feed consumption, 28th day ([2]; Group III: 20 mg/kg b.w. t-rsv): 151.9
protection against abnormalities in serum parameters ([3]; 20 mg/kg t-rsv against AFM1): 45.69–60.3%
decrease in MDA level ([4]; t-rsv with AFM1, liver and kidney, dose not stated): 16%
RE, MN Buccosal [10]: 48.9%
reduction in CA types ([5]; 10 mg/kg and 20 mg/kg t-rsv treatment with AFM1): 22.6–63.9%
reduction of gap formation ([5]; 20 mg/kg t-rsv with AFM1): 63.9%
CAs frequency, Acentric [5, 14]: 0.00 ± 0.00^d
CAs frequency, Break [5, 14]: 0.00 ± 0.00^d
CAs frequency, Dicentric [5, 14]: 0.00 ± 0.00^d
CAs frequency, Fragment [5, 14]: 0.00 ± 0.00^d
CAs frequency, Gap [5, 14]: 0.00 ± 0.00^d
CAs frequency, Acentric [5, 15]: 0.00 ± 0.00^d
CAs frequency, Break [5, 15]: 0.00 ± 0.00^d
CAs frequency, Dicentric [5, 15]: 0.00 ± 0.00^d
CAs frequency, Fragment [5, 15]: 0.00 ± 0.00^d
CAs frequency, Gap [5, 15]: 0.00 ± 0.00^d
RE, MI Rate ([6]; 20 mg/kg t-rsv against 16 mg/kg AFM1): 80.7%
MI levels ([6]; control group, 10 mg/kg, 20 mg/kg t-rsv-treated groups): 13.9–14.3%
DNA damage by t-rsv application alone ([7]; Group II and III vs control, p > 0.05): did not induce DNA damage
FBW: Final body weight [12]: 49.91 ± 2.10 g
TWG: Total weight gain [12]: 11.96^a g
FBW: Final body weight [13]: 50.66 ± 2.18 g
TWG: Total weight gain [13]: 12.40^a g
toxic effect of resveratrol alone [11]: did not have a toxic effect
